The source of these data is US11401257B2, “Solid forms of 2-(4-chlorophenyl)-N-((2-(2,6-dioxopiperidin-3-yl)-1-oxoisoindolin-5-yl)methyl)-2,2-difluoroacetamide, and their pharmaceutical compositions and uses” (Celgene Corporation, priority 2016, dated 2022).

Each structure is given as a SMILES string. ≈ marks a conversion by molar mass, not a printed value.

Assay type in all cases: physicochemical
Data set [1] is described as follows: Form conversion experiments (interconversion among solid forms). Particulars: anhydrates of Compound 1. The protocol:
Further form conversion experiments were performed to determine interconversion among solid forms.

The nature of data set [2]: physchem. Particulars: for solubility at 24 h: thermodynamic from solid. The protocol: Solubility of Form C in selected aqueous and organic solvents was determined by mixing solid with solvents at room temperature. […]
Data set [3] in a line: Hygroscopicity by dynamic vapor sorption (DVS). The conditions noted are these: for water uptake (DVS): relative humidity increased from about 0% to about 90% RH; for DVS water uptake: up to 90% RH. The protocol:
Hygroscopicity was determined on a Surface Measurement Systems DVS. Typically a sample size of 5-20 mg was loaded into the DVS instrument sample pan and the sample was analyzed on a DVS automated sorption analyzer at room temperature. The relative humidity was increased from 0% to 90% RH at 10% RH step, then decreased in a similar manner to accomplish a full adsorption/desorption cycle.

A short description of data set [4]: physchem. The conditions noted are these: water, thermodynamic from solid, Approximate Solubility. The protocol: In order to select the screening solvents and to determine the concentration range to be used in the screen, a quantitative solubility assessment was performed on Form B and Form C of Compound 1.

As to `O=C1CCC(N2Cc3cc(CNC(=O)C(F)(F)c4ccc(Cl)cc4)ccc3C2=O)C(=O)N1` (centres unmarked) [Form C, 2-(4-chlorophenyl)-N-((2-(2,6-dioxopiperidin-3-yl)-1-oxoisoindolin-5-yl)methyl)-2,2-difluoroacetamide], in data set [1], the “thermodynamic stability among the crystal forms” value is “most thermodynamically stable anhydrate”. In addition, the solubility (usually how much of the substance goes into solution per volume) in data set [2] (2 h) was 843 µg/mL (≈ 1830 µM). The compound also came in with a solubility at 24 h in data set [2] (pH 4, aqueous buffer) of 1 µg/mL (≈ 2.17 µM). Moreover, the concentration in solution in data set [2] (pH 6.8, aqueous buffer) (solubility at 24 h) was 1 µg/mL (≈ 2.17 µM). Moreover, in data set [3], the “water uptake (DVS)” value is on record as “about 0.6 % w/w” and the DVS water uptake is recorded as about 0.6 wt % water.
In the case of `O=C1CCC(N2Cc3cc(CNC(=O)C(F)(F)c4ccc(Cl)cc4)ccc3C2=O)C(=O)N1` (centres unmarked) [Form A, 2-(4-chlorophenyl)-N-((2-(2,6-dioxopiperidin-3-yl)-1-oxoisoindolin-5-yl)methyl)-2,2-difluoroacetamide], in data set [3], the “water uptake (DVS)” value is on record as “about 1.2 % w/w” and the DVS water uptake is given as about 1.2 wt % water.
As to `O=C1CCC(N2Cc3cc(CNC(=O)C(F)(F)c4ccc(Cl)cc4)ccc3C2=O)C(=O)N1` (centres unmarked) [Form B, 2-(4-chlorophenyl)-N-((2-(2,6-dioxopiperidin-3-yl)-1-oxoisoindolin-5-yl)methyl)-2,2-difluoroacetamide], in data set [4], the solubility is under 1000 µg/mL. In data set [3], the “water uptake (DVS)” value was “about 1.4 % w/w” and the DVS water uptake is about 1.4 wt % water.
